Data: US8609695B2, “Methods of treating and/or suppressing insulin resistance” (Endorecherche, Inc., priority 1999, dated 2013)

Assays:
[1] = test system: ovariectomized female rats; assay: 34-week treatment with ethynyl estradiol, EM-652.HCl, Raloxifene and DHEA, body fat (Example 7); format: in vivo, rat; settings: OVX rats, 34 weeks; for Fat %: DEXA; for Fat % / Left retroperitoneal adipose tissue / Right retroperitoneal adipose tissue: EE2 0.1, Raloxifene 1, EM-652.HCl 1 mg/kg oral, DHEA 80 mg/kg topical
Method: The objective of this study was to assess the effect of a combined treatment with EM-652.HCl, and DHEA on body fat and body weight parameters in ovariectomized rats. For this purpose, ovariectomized rats received daily administration of EM-652.HCl (1 mg/kg), and DHEA (80 mg/kg) alone or in combination, for 34 weeks. EM-652.HCl was administered orally while DHEA was applied topically on dorsal skin. One group of animals was orally treated with 17-ethynylestradiol (0.1 mg/kg) and Raloxifene (EM-1105; 1 mg/kg) for comparison.
Ten to twelve week-old female Sprague-Dawley rats (Crl:CD(SD)Br) weighing approximately 235-250 g at start of treatment were used. Eighty rats were randomly distributed between 7 groups of 11 to 12 animals per group as follows: 1) Intact control; 2) OVX control; 3) OVX+EE2 (0.1 mg/kg); 4) OVX+raloxifene (1 mg/kg); 5) OVX+EM-652.HCl (1 mg/kg); 6) OVX+DHEA (80 mg/kg); 7) OVX+EM-652.HCl+DHEA. On day 1 of the study, the animals of the appropriate groups were bilaterally ovariectomized (OVX) under isoflurane anesthesia. EM-652.HCl, raloxifene and EE2 (Steraloids) were administered once daily by oral gavage as suspension in 0.4% methylcellulose (0.5 ml/rat) for 34 weeks while DHEA was applied topically once daily on dorsal skin as a solution in 50% ethanol-50% propylene glycol (0.5 ml/rat) for the same time period. Approximately 24 hours after the last dosing, overnight fasted animals were killed by exsanguination at the abdominal aorta under isoflurane anesthesia. Left and right retroperitoneal adipose tissues were collected and weighed.
After 34 weeks of treatment, individual rats under anesthesia with isoflurane had their whole body skeleton scanned using dual energy x-ray absorptiometry (DEXA; QDR 4500A, Hologic, Waltham, Mass.) and a Regional High Resolution Scan software. The body composition (including fat percentage) was determined.
Data were expressed as the means±SEM.

[2] = test system: intact (INT) and ovariectomized (OVX) female rats; assay: EM-652.HCl and DHEA, energy balance and lipid-lipoprotein metabolism, high sucrose-high fat diet (Example 9); format: in vivo; settings: 20 days, EM-652.HCl 0.5 mg/rat per os, DHEA 20 mg/rat topical
Method: The objective of this study was to determine the effects of EM-652.HCl and DHEA, administered alone or in combination, on energy balance and lipid-lipoprotein metabolism in rats. The effect of treatments was evaluated on many parameters following a 20-day treatment with EM-652.HCl (0.5 mg/rat, ˜2.5 mg/kg, per os) and DHEA (20 mg/rat, ˜100 mg/kg, topical application), administered alone or in combination, to intact (INT) and ovariectomized (OVX) female rats receiving a high sucrose-high fat diet. For comparison, one intact and ovariectomized control group received the enriched diet while other control animals (intact and OVX) received the commercial rodent diet.
d) Diet: • During the acclimation period, rats received a commercial rodent diet (Purina, #5075) and tap water ad libitum. During study period, groups 1 & 2 continued to receive the commercial diet while groups 3 to 10 received a high sucrose-high fat diet composed of (g/100 g): Sucrose, 45; Corn oil, 10; Lard, 10; Casein, 22.5; dl-Methionine, 0.3; Vitamin mix, 1.2; AIN-76 mineral mix, 5.5; Fiber, 5.5.44
80 rats were assigned to 10 groups of 8 rats for conduct of the study outlined below.
On day 0 of the study, rats from the appropriate groups were ovariectomized (by bilateral flank incision) under Isoflurane anesthesia. Intact rats were sham-operated.
Administration of the tested compounds or vehicle started the day following the ovariectomy (Day 1). […] Rats from control groups received the vehicle alone (per os and topically). Rats were killed on day 21 of the study approximately 24 hours after the last dosing.
Rats were weighed on day 0 (surgery), every 2 days during the study period and on the day of necropsy. Body weights were recorded with a precision of 1.0 g.
On day 21 of the study, overnight fasted rats were killed approximately 24 hours after the last dosing. They were anesthesized with ketamine-xylazine and blood drawn by cardiac punction.
Blood lipids (Total cholesterol and Triglycerides) were measured on frozen serum samples using the Boehringer Mannheim Diagnostic Hitachi 911 Analyzer (Boehringer Mannheim Diagnostic Laboratory Systems). Circulating hormones and substrates (Insulin, leptin, glucose) were measured on serum samples as follow: • Insulin: Linco RIA kit • Glucose: Beckmann automatic glucose analyser • Leptin: Linco RIA kit Organs and Tissues Collected
The following tissues were collected and weighed for all animals: • Muscle (soleus and VLM), fat (retroperitoneal and inguinal), and brown adipose tissue.
A piece of liver was frozen for later determination of TG and CHOL content (Folchis method) while the other tissues were processed for determination of LPL activity.

SMILES	increment of body fat and retroperitoneal adipose tissue by ovariectomy [1]	Fat % [1] [%]	Left retroperitoneal adipose tissue [1] [g]	Right retroperitoneal adipose tissue [1] [g]	Brown adipose tissue Lipoprotein lipase activity ([2]; OVX rats) [μU/g protein]	Brown adipose tissue weight ([2]; OVX rats) [g]	Plasma glucose ([2]; OVX rats) [mmol/L]	Plasma insulin ([2]; OVX rats) [nmol/L]	Plasma leptin ([2]; OVX rats) [ng/mL]	Plasma total cholesterol ([2]; OVX rats) [mmol/L]	Plasma triglycerides ([2]; OVX rats) [mmol/L]	Soleus muscle Lipoprotein lipase activity ([2]; OVX rats) [μU/g protein]	Soleus muscle weight ([2]; OVX rats) [g]	Total weight ([2]; OVX rats) [g]	VastusLateralis muscle Lipoprotein lipase activity ([2]; OVX rats) [μU/g protein]	VastusLateralis muscle weight ([2]; OVX rats) [g]	White adipose tissue inguinal Lipoprotein lipase activity ([2]; OVX rats) [μU/g protein]	White adipose tissue inguinal weight ([2]; OVX rats) [g]	White adipose tissue retroperitoneal Lipoprotein lipase activity ([2]; OVX rats) [μU/g protein]	White adipose tissue retroperitoneal weight ([2]; OVX rats) [g]	also measured
C[C@]12CC[C@H](O)CC1=CC[C@@H]1[C@@H]2CC[C@]2(C)C(=O)CC[C@@H]12 [DHEA, dehydroepiandrosterone]	prevented	26.8 ± 2.3	1.98 ± 0.17	2.16 ± 0.25	1069 ± 96	0.342 ± 0.049	8.64 ± 0.24	0.052 ± 0.009	2.757 ± 0.631	1.57 ± 0.12	0.62 ± 0.08	45.9 ± 4.7	0.103 ± 0.005	274 ± 9	13.1 ± 5.4	0.920 ± 0.049	583 ± 134	0.885 ± 0.156	1905 ± 112	1.699 ± 0.151	liver total cholesterol ([2]; OVX rats): 0.079 ± 0.005 mmol/L; liver triglycerides ([2]; OVX rats): 0.165 ± 0.047 mmol/L; Brown adipose tissue Lipoprotein lipase activity ([2]; sham rats): 982 ± 72 μU/g protein; Brown adipose tissue weight ([2]; sham rats): 0.373 ± 0.036 g; Plasma glucose ([2]; sham rats): 8.05 ± 0.51 mmol/L; Plasma insulin ([2]; sham rats): 0.048 ± 0.012 nmol/L; Plasma leptin ([2]; sham rats): 1.977 ± 0.255 ng/mL; Plasma total cholesterol ([2]; sham rats): 1.59 ± 0.17 mmol/L; Plasma triglycerides ([2]; sham rats): 0.61 ± 0.11 mmol/L; Soleus muscle Lipoprotein lipase activity ([2]; sham rats): 53.6 ± 7.5 μU/g protein; Soleus muscle weight ([2]; sham rats): 0.105 ± 0.004 g; Total weight ([2]; sham rats): 252 ± 5 g; VastusLateralis muscle Lipoprotein lipase activity ([2]; sham rats): 11.5 ± 2.0 μU/g protein; VastusLateralis muscle weight ([2]; sham rats): 0.893 ± 0.043 g; White adipose tissue inguinal Lipoprotein lipase activity ([2]; sham rats): 194 ± 45 μU/g protein; White adipose tissue inguinal weight ([2]; sham rats): 0.659 ± 0.075 g; White adipose tissue retroperitoneal Lipoprotein lipase activity ([2]; sham rats): 1177 ± 188 μU/g protein; White adipose tissue retroperitoneal weight ([2]; sham rats): 1.067 ± 0.149 g; liver total cholesterol ([2]; sham rats): 0.068 ± 0.003 mmol/L; liver triglycerides ([2]; sham rats): 0.038 ± 0.007 mmol/L
CC1=C(c2ccc(O)cc2)[C@H](c2ccc(OCCN3CCCCC3)cc2)Oc2cc(O)ccc21.Cl [EM-652.HCl, (S)-(+)-7-hydroxy-3-(4′-hydroxyphenyl)-4-methyl-2-(4″-(2′″-piperidino-ethoxy)phenyl)-2H-1-benxopyran hydrochloride]	prevented	27.7 ± 1.8	2.19 ± 0.28	2.07 ± 0.18	678 ± 65	0.408 ± 0.025	9.06 ± 0.30	0.089 ± 0.013	1.989 ± 0.326	1.15 ± 0.11	0.97 ± 0.16	39.1 ± 5.0	0.104 ± 0.004	268 ± 5	10.8 ± 3.2	0.944 ± 0.030	310 ± 63	0.709 ± 0.085	1612 ± 186	1.370 ± 0.211	liver total cholesterol ([2]; OVX rats): 0.092 ± 0.006 mmol/L; liver triglycerides ([2]; OVX rats): 0.348 ± 0.078 mmol/L; Brown adipose tissue Lipoprotein lipase activity ([2]; sham rats): 1196 ± 83 μU/g protein; Brown adipose tissue weight ([2]; sham rats): 0.306 ± 0.044 g; Plasma glucose ([2]; sham rats): 9.03 ± 0.49 mmol/L; Plasma insulin ([2]; sham rats): 0.057 ± 0.004 nmol/L; Plasma leptin ([2]; sham rats): 2.019 ± 0.402 ng/mL; Plasma total cholesterol ([2]; sham rats): 1.15 ± 0.06 mmol/L; Plasma triglycerides ([2]; sham rats): 0.60 ± 0.12 mmol/L; Soleus muscle Lipoprotein lipase activity ([2]; sham rats): 53.9 ± 3.3 μU/g protein; Soleus muscle weight ([2]; sham rats): 0.098 ± 0.005 g; Total weight ([2]; sham rats): 238 ± 5 g; VastusLateralis muscle Lipoprotein lipase activity ([2]; sham rats): 16.2 ± 3.1 μU/g protein; VastusLateralis muscle weight ([2]; sham rats): 0.965 ± 0.034 g; White adipose tissue inguinal Lipoprotein lipase activity ([2]; sham rats): 160 ± 23 μU/g protein; White adipose tissue inguinal weight ([2]; sham rats): 0.435 ± 0.043 g; White adipose tissue retroperitoneal Lipoprotein lipase activity ([2]; sham rats): 1277 ± 56 μU/g protein; White adipose tissue retroperitoneal weight ([2]; sham rats): 1.058 ± 0.162 g; liver total cholesterol ([2]; sham rats): 0.096 ± 0.011 mmol/L; liver triglycerides ([2]; sham rats): 0.360 ± 0.102 mmol/L
